{"source": "patent US20230149409A1", "about": "“TREATMENT OF HUMAN PAPILLOMAVIRUS-ASSOCIATED CANCERS BY PD-L1 INHIBITORS” (priority 2021, published 2023)", "key": {"[1]": {"target": "T1, PD-⅟PD-L1 (recombinant human PD-L1 protein and human PD-1 protein) (Homo sapiens, UniProt Q9NZQ7)", "T1 construct": "Recombinant human PD-L1 protein (19-238) with a His-tag at the C-terminus; purchased AcroBiosystems PD1-H5229 (PD-L1); PD1-H5257 (PD-1)", "T1 sequence (Q9NZQ7 19-238)": "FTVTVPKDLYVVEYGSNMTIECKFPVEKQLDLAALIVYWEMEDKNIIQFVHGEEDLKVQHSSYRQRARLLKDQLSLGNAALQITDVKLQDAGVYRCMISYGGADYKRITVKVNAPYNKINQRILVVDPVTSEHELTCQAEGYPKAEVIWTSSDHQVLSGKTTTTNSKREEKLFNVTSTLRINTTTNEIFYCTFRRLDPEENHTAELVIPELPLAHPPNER", "assay": "Homogeneous Time-Resolved Fluorescence (HTRF) PD-1/PD-L1 binding assay", "conditions": "3 nM PD1, 10 nM PD-L1, 25° C., PBS pH 7.4"}, "[2]": {"target": "T2, PD-L1 on CD14+ cells in human whole blood (Homo sapiens, UniProt Q9NZQ7)", "T2 construct": "Cells were gated on CD14+ (BD Biosciences) and PD-L1 expression determined by mean fluorescence intensity; host or cells: CD14+ cells in normal human whole blood, stimulated with human interferon gamma", "T2 sequence (Q9NZQ7 19-290)": "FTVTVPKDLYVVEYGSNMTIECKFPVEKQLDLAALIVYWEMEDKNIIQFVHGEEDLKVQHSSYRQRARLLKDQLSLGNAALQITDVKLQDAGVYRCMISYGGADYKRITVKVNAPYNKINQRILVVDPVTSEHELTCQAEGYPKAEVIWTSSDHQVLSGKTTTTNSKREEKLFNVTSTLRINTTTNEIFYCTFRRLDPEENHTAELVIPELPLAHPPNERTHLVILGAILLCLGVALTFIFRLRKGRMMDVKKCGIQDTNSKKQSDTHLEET", "assay": "PD-L1 whole blood internalization assay", "assay_type": "cell-based", "conditions": "1 ng/mL interferon γ, CD14+ gated, 24 hour", "summary_of_the_method": "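Normal human whole blood exposed to compound concentration range plus 1 ng/mL IFN-γ for 18–20 h at 37 °C, then stained for PD-L1 and CD14, red cells lysed/fixed. PD-L1 MFI measured on CD14+ gated cells by flow cytometry; IC50 from percent inhibition versus log concentration fit.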"}, "[3]": {"tested_on": "select advanced solid tumors (HPV+ carcinomas)", "assay": "Phase 1 open-label clinical trial of Compound 24", "assay_type": "in vivo, human", "parameters": "key: complete response (CR); partial response (PR); stable disease (SD); progressive disease (PD)", "text": "Two open-label, nonrandomized, global multicenter Phase 1 studies in participants with select advanced solid tumors are being conducted for Compounds 24 and 30 in Table 1 supra. In addition to the primary endpoint of determining safety, tolerability, PAD and/or maximum tolerated dose (MTD) of each compound, the studies are exploring preliminary efficacy (complete response (CR), partial response (PR), stable disease (SD), or progressive disease (PD)) in participants with select advanced cancers, including virally mediated tumors such as HPV+ carcinomas. HPV+ tumors can be determined by a local laboratory using p16 IHC, polymerase chain reaction methods, or other locally-available method to detect HPV. Results for patients having solid tumors whose HPV+ status was confirmed, suspected or negative are shown below for Compound 24 and Compound 30 in Tables 4 and 5, respectively."}, "[4]": {"tested_on": "PD-L1 (PD-L1 aAPC/CHO-K1 cells, Jurkat-PD-1-NFAT effector cells)", "assay": "Nuclear Factor of Activated T-cells (NFAT) assay", "assay_type": "cell-based", "conditions": "Cricetulus griseus; PD-L1 aAPC/CHO-K1 + Jurkat-PD-1-NFAT cells, 24 hours", "summary_of_the_method": "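PD-L1 aAPC/CHO-K1 cells (8000/well) were treated with compound (0.4% DMSO, 2 µM final), then co-cultured with Jurkat-PD-1-NFAT effector cells for 24 hours at 37° C. NFAT luciferase luminescence was normalized to DMSO as fold induction. Maximum induction is relative to the control compound's top FOI; EC50 is from curve fitting.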"}, "[5]": {"tested_on": "PD-L1 (U2OS/PD-L1 cells, Jurkat-PD-1-SHP cells)", "assay": "Src Homology Region 2 Domain-containing Phosphatase (SHP) assay", "assay_type": "cell-based", "conditions": "Homo sapiens; U2OS/PD-L1 + Jurkat-PD-1-SHP cells, 2 hours", "summary_of_the_method": "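U2OS/PD-L1 cells and Jurkat-PD-1-SHP cells (5,000 each per well) were co-incubated with compound in RPMI1640/1% FBS for 2 h at 37° C, with final DMSO 0.05%. PathHunter chemiluminescence was read after 1 h at room temperature. IC50 was fitted from percent of DMSO-control activity against log concentration.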"}}, "data": [{"smiles": "Cc1c(Nc2nc(C(F)F)nc3cc(CN4CC[C@@H](O)C4)cnc23)cccc1-c1cccc(-c2nc3cc(CN4CCC(C(=O)O)CC4)cc(C#N)c3o2)c1C", "note": "[Compound 24]", "values": [{"measurement": "IC50", "setting": "[1]", "result": "< 10", "unit": "nM"}, {"measurement": "IC50", "setting": "[2]", "result": "< 100", "unit": "nM"}, {"measurement": "Best Overall Response", "setting": "[3]; Patient 1, 200 mg QD, Cervical cancer (AC), HPV/p16 status Not determined", "result": "SD"}, {"measurement": "Best Overall Response", "setting": "[3]; Patient 2, 200 mg BID, Cervical cancer (clear cell), HPV/p16 status Not determined", "result": "PD"}, {"measurement": "Best Overall Response", "setting": "[3]; Patient 3, 400 mg BID, Anal carcinoma, HPV 16 positive", "result": "SD"}, {"measurement": "Best Overall Response", "setting": "[3]; Patient 4, 400 mg BID, Anal carcinoma, HPV 16 positive", "result": "SD"}, {"measurement": "Best Overall Response", "setting": "[3]; Patient 5, 300 mg BID, Vaginal cancer (SCC), HPV 16 positive", "result": "SD"}, {"measurement": "Best Overall Response", "setting": "[3]; Patient 6, 400 mg BID, Cervical cancer (SCC), HPV 16 positive", "result": "PR"}, {"measurement": "Best Overall Response", "setting": "[3]; Patient 7, 200 mg BID, Anal carcinoma (SCC), Positive unknown type", "result": "PD"}, {"measurement": "Best Overall Response", "setting": "[3]; Patient 8, 400 mg BID, Anal carcinoma, HPV 16 positive", "result": "PD"}, {"measurement": "Best Overall Response", "setting": "[3]; Patient 9, 600 mg QD, Anal carcinoma (rectovaginal), HPV 16,33,31 positive", "result": "SD"}, {"measurement": "Best Overall Response", "setting": "[3]; Patient 10, 400 mg BID, Cervical cancer (AC), HPV 16 positive", "result": "SD"}, {"measurement": "Best Overall Response", "setting": "[3]; Patient 11, 400 mg BID, Anal carcinoma (SCC), HPV/p16 status Not determined", "result": "PR"}, {"measurement": "Best Overall Response", "setting": "[3]; Patient 12, 600 mg QD, Anal carcinoma (SCC), HPV/p16 status Not determined", "result": "SD"}, {"measurement": "Best Overall Response", "setting": "[3]; Patient 13, 400 mg BID, Rectovaginal septum (SCC), P16+, HPV 16", "result": "PD"}, {"measurement": "Best Overall Response", "setting": "[3]; Patient 14, 600 mg QD, Anal carcinoma, HPV 16", "result": "PD"}, {"measurement": "Best Overall Response", "setting": "[3]; Patient 15, 800 mg QD, Anal carcinoma, HPV 16", "result": "PD"}, {"measurement": "Best Overall Response", "setting": "[3]; Patient 16, 800 mg QD, Vulvar (SCC), HPV/p16 status Not determined", "result": "PD"}, {"measurement": "Best Overall Response", "setting": "[3]; Patient 18, 800 mg QD, Cervical cancer (SCC), P16 positive", "result": "PD"}, {"measurement": "Best Overall Response", "setting": "[3]; Patient 19, 800 mg QD, Anal cancer, HPV 16 positive", "result": "PD"}, {"measurement": "Best Overall Response", "setting": "[3]; Patient 20, 800 mg QD, Anal cancer, HPV 16 positive", "result": "PD"}, {"measurement": "Best Overall Response", "setting": "[3]; Patient 21, 300 mg BID, Anal cancer, HPV 16", "result": "SD"}]}, {"smiles": "Cc1c(Nc2nc(C(F)F)nc3cc(CN4CC[C@@H](O)C4)cnc23)cccc1-c1cccc(NC(=O)c2nc3c(n2C)CCN(CCC24CCC(C(=O)O)(CC2)C4)C3)c1Cl", "note": "[Compound 34, (R)-4-(2-(2-((2-chloro-3′-((2-(difluoromethyl)-7-((3-hydroxypyrrolidin-1-yl)methyl)pyrido[3,2-d]pyrimidin-4-yl)amino)-2′-methyl-[1,1′-biphenyl]-3-yl)carbamoyl)-1-methyl-1,4,6,7-tetrahydro-5H-imidazo[4,5-c]pyridin-5-yl)ethyl)bicyclo[2.2.1]heptane-1-carboxylic acid]", "values": [{"measurement": "IC50", "setting": "[1]", "result": "< 10", "unit": "nM"}, {"measurement": "EC50", "setting": "[4]", "result": "< 10", "unit": "nM"}, {"measurement": "IC50", "setting": "[5]", "result": "< 10", "unit": "nM"}, {"measurement": "IC50", "setting": "[2]", "result": "< 10", "unit": "nM"}]}]}
